{
  "source": "patent US10222368B2",
  "about": "(priority 2012, dated 2019)",
  "key": {"TLR4-FLNA complex": {"target": "T1, TLR4-FLNA complex (Homo sapiens, UniProt P21333)", "T1 construct": "To determine the levels of FLNA-α7nAChR, FLNA-TLR4 and α7nAChR-Aβ42 complexes in the lymphocytes; endogenous in cells; host or cells: lymphocytes from venous blood of AD patients and control subjects (ex vivo)", "T1 sequence (P21333 2-2647 limits assumed, one chain of several)": "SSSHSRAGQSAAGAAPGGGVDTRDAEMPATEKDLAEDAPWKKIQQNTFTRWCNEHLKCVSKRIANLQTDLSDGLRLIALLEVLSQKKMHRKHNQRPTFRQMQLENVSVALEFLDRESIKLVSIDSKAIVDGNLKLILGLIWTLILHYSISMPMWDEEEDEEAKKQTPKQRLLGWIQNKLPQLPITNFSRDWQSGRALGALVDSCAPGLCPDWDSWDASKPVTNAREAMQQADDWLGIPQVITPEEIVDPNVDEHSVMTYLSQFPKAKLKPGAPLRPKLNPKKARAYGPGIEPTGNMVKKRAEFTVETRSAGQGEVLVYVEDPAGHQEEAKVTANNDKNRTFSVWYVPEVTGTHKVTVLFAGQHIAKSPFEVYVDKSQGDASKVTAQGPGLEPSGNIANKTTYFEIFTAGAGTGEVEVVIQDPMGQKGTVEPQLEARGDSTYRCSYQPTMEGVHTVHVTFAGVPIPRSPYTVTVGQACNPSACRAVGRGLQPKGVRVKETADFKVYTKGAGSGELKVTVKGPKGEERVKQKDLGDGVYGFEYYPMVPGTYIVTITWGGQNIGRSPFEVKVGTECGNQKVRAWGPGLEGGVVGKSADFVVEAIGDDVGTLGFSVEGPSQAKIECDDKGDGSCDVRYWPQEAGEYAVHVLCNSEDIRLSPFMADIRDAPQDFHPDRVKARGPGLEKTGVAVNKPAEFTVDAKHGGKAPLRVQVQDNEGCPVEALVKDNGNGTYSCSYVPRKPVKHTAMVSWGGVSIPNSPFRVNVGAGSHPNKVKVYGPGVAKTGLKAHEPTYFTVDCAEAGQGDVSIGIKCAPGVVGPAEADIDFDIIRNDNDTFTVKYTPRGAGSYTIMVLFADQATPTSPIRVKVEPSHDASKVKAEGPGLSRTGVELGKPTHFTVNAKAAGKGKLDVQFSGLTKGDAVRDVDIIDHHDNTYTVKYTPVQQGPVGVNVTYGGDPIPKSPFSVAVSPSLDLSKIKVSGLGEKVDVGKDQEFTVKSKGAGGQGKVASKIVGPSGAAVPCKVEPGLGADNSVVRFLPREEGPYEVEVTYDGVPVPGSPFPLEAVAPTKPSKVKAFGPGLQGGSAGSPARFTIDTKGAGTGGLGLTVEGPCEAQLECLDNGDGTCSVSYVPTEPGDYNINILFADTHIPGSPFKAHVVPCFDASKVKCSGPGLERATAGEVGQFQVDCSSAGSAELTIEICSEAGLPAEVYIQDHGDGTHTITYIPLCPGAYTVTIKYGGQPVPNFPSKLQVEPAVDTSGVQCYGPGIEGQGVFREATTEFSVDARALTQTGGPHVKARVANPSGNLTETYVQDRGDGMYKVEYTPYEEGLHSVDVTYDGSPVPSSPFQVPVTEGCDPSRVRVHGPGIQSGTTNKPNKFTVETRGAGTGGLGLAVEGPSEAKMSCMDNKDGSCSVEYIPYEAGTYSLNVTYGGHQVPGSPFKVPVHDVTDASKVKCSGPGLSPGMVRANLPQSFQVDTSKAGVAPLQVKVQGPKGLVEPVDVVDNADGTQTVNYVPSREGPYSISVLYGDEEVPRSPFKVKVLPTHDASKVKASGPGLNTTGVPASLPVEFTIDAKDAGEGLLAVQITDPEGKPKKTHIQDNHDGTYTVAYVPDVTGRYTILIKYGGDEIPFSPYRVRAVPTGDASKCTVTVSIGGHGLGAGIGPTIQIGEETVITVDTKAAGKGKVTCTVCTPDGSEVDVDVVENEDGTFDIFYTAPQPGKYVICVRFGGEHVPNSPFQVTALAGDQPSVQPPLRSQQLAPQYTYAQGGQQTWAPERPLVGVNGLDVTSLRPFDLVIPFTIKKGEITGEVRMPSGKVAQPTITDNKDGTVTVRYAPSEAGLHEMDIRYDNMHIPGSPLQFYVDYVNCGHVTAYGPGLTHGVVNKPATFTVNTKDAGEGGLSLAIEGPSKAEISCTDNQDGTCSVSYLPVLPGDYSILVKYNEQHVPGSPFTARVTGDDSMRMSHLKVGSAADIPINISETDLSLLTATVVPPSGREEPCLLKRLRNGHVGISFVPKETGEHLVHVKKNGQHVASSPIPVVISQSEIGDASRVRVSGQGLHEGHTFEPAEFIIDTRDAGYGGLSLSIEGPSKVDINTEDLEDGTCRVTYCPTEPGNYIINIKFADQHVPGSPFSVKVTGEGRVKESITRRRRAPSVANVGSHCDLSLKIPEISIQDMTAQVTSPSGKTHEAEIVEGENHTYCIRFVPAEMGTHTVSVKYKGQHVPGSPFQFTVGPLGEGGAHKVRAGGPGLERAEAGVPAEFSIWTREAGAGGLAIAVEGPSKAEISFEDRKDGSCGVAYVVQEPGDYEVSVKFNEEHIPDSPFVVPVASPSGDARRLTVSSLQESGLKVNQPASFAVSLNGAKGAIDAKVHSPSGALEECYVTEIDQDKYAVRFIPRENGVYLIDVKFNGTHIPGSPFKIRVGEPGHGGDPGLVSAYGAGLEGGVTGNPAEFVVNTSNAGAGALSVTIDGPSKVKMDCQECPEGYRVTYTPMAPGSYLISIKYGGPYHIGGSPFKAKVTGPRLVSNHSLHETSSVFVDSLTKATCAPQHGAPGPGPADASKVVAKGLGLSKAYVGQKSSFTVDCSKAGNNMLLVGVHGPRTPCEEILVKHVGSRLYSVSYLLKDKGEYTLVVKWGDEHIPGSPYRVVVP", "test": "Lymphocyte co-immunoprecipitation / Western blot", "assay_type": "cell-based", "procedure": "To prepare lymphocytes, 7 ml of venous blood was collected into an EDTA-containing collecting tube or S-monovette (Sarstedt, Newton, N.C.). Collected blood (6 ml) was layered onto 6 ml HISTOPAQUE-1077 (Sigma, St Louis, Mo.) at 25° C. and the entire anti-coagulated blood was centrifuged at 400×g for 30 minutes (25° C.) to yield plasma (top layer) and lymphocytes (opaque interface). The lymphocytes were washed twice by mixing with 6 ml oxygenated Kreb's-Ringer followed by centrifugation at 250×g for 10 minutes and re-suspension. The final pellet was resuspended in 250 μl oxygenated Kreb's-Ringer prior to protein content determination by the Bradford method and assessment of the levels of FLNA-α7nAChR, FLNA-TLR4 and α7nAChR-Aβ42 complexes. To store lymphocytes, the lymphocyte pellet was resuspended in 250 μl ice-cold oxygenated Kreb's-Ringer containing 10% glycerol, and stored at −20° C. for 1 hour before storage at −80° C.\nTo determine the levels of FLNA-α7nAChR, FLNA-TLR4 and α7nAChR-Aβ42 complexes in the lymphocytes, lymphocytes (50 μg) from control subjects were incubated for 30 minutes at 37° C. in 0.25 ml Kreb's-Ringer without or with 100 nM Aβ 42, and lymphocytes (50 μg) from AD subjects were incubated for 30 minutes at 37° C. in 0.25 ml Kreb's-Ringer. Lymphocytes from control and AD subjects were also simultaneously incubated with or without Compound C0105 (1 nM). […] In the case that frozen lymphocyte samples were used, a lymphocyte suspension was gradually thawed by storing at −20° C. for 1 hour after removal from −80° C. and then at thawed at 4° C.\nThe incubation was terminated by adding 1 ml ice-cold Ca^2+-free Kreb's-Ringer containing 0.5 mM EGTA/0.1 mM EDTA, protease and phosphatase inhibitors followed by centrifugation. The resultant lymphocyte pellet was homogenized in 0.25 ml ice-cold immunoprecipitation buffer. […]\nThe results are shown in FIG. 1A and quantified in FIG. 1C. […]"}, "α7nAChR-FLNA complex": {"target": "T2, α7nAChR-FLNA complex (Homo sapiens, UniProt P21333)", "T2 construct": "To determine the levels of FLNA-α7nAChR, FLNA-TLR4 and α7nAChR-Aβ42 complexes in the lymphocytes; endogenous in cells; host or cells: lymphocytes from venous blood of AD patients and control subjects (ex vivo)", "T2 sequence (P21333 2-2647 limits assumed, one chain of several)": "as above", "test": "α7nAChR/FLNA ELISA of lymphocyte lysates (Example 7)", "assay_type": "cell-based", "conditions": "for Optical Density α7nAChR/FLNA (OD450), average: AD lymphocytes + 10 μM C0105, four replicate studies, background subtracted", "procedure": "The capture antibody was the mouse anti-human Filamin A SC-17749 (Santa Cruz Biotechnology), and rabbit anti-human α7nAChR SC-5544 (Santa Cruz Biotechnology Santa Cruz Biotechnology) as the detection antibody. The assays were carried out in Santa Cruz Flat Bottom Plates.\nPBS buffer used was 1×PBS (Mg-, and Ca-free) from Thermo Scientific, whereas PBST was 1×PBS+0.05% Tween®-20.\nCoating buffer was prepared by dissolving 1.59 g of Na2CO3 in 0.9 L distilled H2O, to which was added 0.1 g NaN3 and 3.93 g of NaHCO3. The pH value was adjusted to 9.6, and the volume adjusted to 1 L with additional distilled H2O. Santa Cruz BSA blocking buffer supplemented with 1% BSA (sc-293965).\nThe HRP Detection Reagent (TMB) was prepared using 1-Step Ultra TMB-ELISA, (Cat#34028; Thermo Scientific). Standard protocol using 100 μl of the TMB substrate solution per each microplate well, followed by 10-15 minute incubation (or until color develops) and stopping reaction by adding 100 μl of 2 M sulfuric acid to each well. Absorbance (OD450) measured at 450 nm. Santa Cruz BSA blocking buffer was used supplemented with 1% BSA (SC-293965), and assays were carried out using a Molecular Devices Spectramax™ PLUS ELISA plate reader at 450 nm.\nAD patient samples: 20 microtubes (labeled #1-#20; 100 ul volume each) with AD patients lymphocytes were received frozen on dry ice. Samples were kept at −20° C. freezer for 1 hour, following thawing at 4° C. […] Ice-cold PBS (300 μl) was added and entire contents were centrifuged to remove insoluble debris.\nNormal patient sample was prepared by following procedure: 8 mL of venous blood was collected into cat#362761 BD Vacutainer™ CPT tube (cell preparation tube with sodium citrate) and following manufacturer's recommended protocol for white blood cells isolation (including two centrifugation/PBS wash steps). […] Ice-cold PBS (300 μl) was added and entire content was centrifuged to remove insoluble debris, resulting in “NP sample”.\nCompound C0105 treatment was performed using AD patient white blood cells resuspended in 1×PBS and treated with: a) 10 μM Compound C0105 (final concentration), and b) control (PBS only) for 60 minutes at 37° C. (total volume is 400 μl of each sample).\nAnti-Filamin A antibody (SC-17749) was diluted in Coating Buffer (at dilution ratio of 1:30) and 100 μl sample loaded per well and incubated 2.5 hours at room temperature (RT). The plate was covered with adhesive cover to prevent evaporation. Followed by washing of the microtiter plate with 150 μl of Blocking Buffer (supplemented with 1% BSA) and added 100 μl of Blocking Buffer to the wells for 30 minutes at RT.\nAD samples (AD patients lymphocytes, as described above) were used to generate serial dilution series samples (dilution performed in PBS) and 100 μl sample loaded per well and incubated 1 hour at RT (total protein concentration is indicated as established by Bradford assay, as described above). The plate was covered with adhesive cover to prevent evaporation, followed by washing each well two times with 160 μl PBST Buffer.\nAfter washing of the microtiter plate with washing buffer, 100 μl of α7nAChR primary antibody (SC-5544) were added per well (1:50 dilution ratio) in 1×PBS and incubated for 1 hour at RT."}, "[1]": {"target": "FLNA association with α7nAChR (Mus musculus, UniProt Q8BTM8)", "test": "ICV Aβ42 infusion mouse model, synaptosome co-immunoprecipitation", "conditions": "10 mg/kg C0105 i.p. twice daily, 2 weeks; prefrontal cortex and hippocampus"}},
  "data": [
    {"smiles": "CN1CCC2(CC1)NCC(=O)N2Cc1ccccc1", "note": "[Compound C0105]", "values": [
      {"measurement": "inhibition at 0.001 µM", "setting": "TLR4-FLNA complex; 1 nM C0105, 30 min, lymphocytes of 20 AD subjects, read-out: Reduction of TLR4/FLNA complex level (% inhibition)", "value": "~50", "unit": "%"},
      {"measurement": "Effect on amount of TLR4-FLNA complexes (in words), pilot study", "setting": "TLR4-FLNA complex; 1 nM C0105, Aβ42-treated control and untreated AD lymphocytes", "value": "decreases the amount of TLR4-FLNA complexes"},
      {"measurement": "Effect on TLR4/FLNA complex level (in words)", "setting": "TLR4-FLNA complex; 1 nM C0105, lymphocytes of 10 YCI controls", "value": "no discernible effect"},
      {"measurement": "Effect on amount of α7nAChR associated with FLNA (in words)", "setting": "α7nAChR-FLNA complex; 10 μM, AD lymphocytes", "value": "significant reduction"},
      {"measurement": "Effect on amount of α7nAChR/FLNA complex (in words)", "setting": "α7nAChR-FLNA complex; 10 μM, YCI lymphocyte preparation", "value": "substantially no difference"},
      {"measurement": "Optical Density α7nAChR/FLNA (OD450), average", "setting": "α7nAChR-FLNA complex; 1.25 (mg) lysate per well", "value": 0.1572},
      {"measurement": "Optical Density α7nAChR/FLNA (OD450), average", "setting": "α7nAChR-FLNA complex; 2.5 (mg) lysate per well", "value": 0.2261},
      {"measurement": "Optical Density α7nAChR/FLNA (OD450), average", "setting": "α7nAChR-FLNA complex; 5 (mg) lysate per well", "value": 0.291},
      {"measurement": "Optical Density α7nAChR/FLNA (OD450), average", "setting": "α7nAChR-FLNA complex; 10 (mg) lysate per well", "value": 0.3349},
      {"measurement": "Optical Density α7nAChR/FLNA (OD450), average", "setting": "α7nAChR-FLNA complex; 20 (mg) lysate per well", "value": 0.4504},
      {"measurement": "Effect on Aβ42-induced FLNA association with α7nAChR (in words)", "setting": "[1]", "value": "reduced Aβ42-induced increases in FLNA associations"}
    ]}
  ]
}
